# Measurements published in PubChem BioAssay AID743303 (Broad Institute, 2014).
# Several values for one entry are separate records, joined by “and”; a condition that tells them apart may be missing. Equal values may be shown once. Activity calls are given as the source filed them. No rule for the calls is given here.
# Test system: C. neoformans cell lysis, adenylate kinase release
# Experiment: fungal lysis via adenylate kinase leakage – AK release, plate reader, dry powder, set 2, dose response (AID 743303)
# Conditions: not given
row,Structure (SMILES),AC40
1,Cc1cccc(OCCn2c(=S)[nH]c3ccccc32)c1,1.38 µM
2,Cc1ccc(C(C)C)c(OCCn2c(N)nc3ccccc32)c1,> 15 µM (inactive)
3,Cc1ccccc1OCCn1cnc2ccccc21,15 µM
4,Fc1ccc2c(c1)[nH]c(=S)n2CCOc1ccccc1,2.83 µM and 6.57 µM
5,c1ccc(COc2ccc(OCCn3cnc4ccccc43)cc2)cc1,> 15 µM (inactive)
6,NCC(=O)Nc1ccc(-n2nc(C(F)(F)F)cc2-c2ccc3c(ccc4ccccc43)c2)cc1,5 µM
7,S=c1[nH]c2cc(Cl)ccc2n1CCOc1ccccc1,2.57 µM
8,Cc1ccc(OCCn2cnc3ccccc32)c(C)c1,> 15 µM (inactive)
9,CCSc1nc2ccccc2n1CCOc1ccccc1,> 15 µM (inactive)
10,COCc1nc2ccccc2n1CCOc1ccc(C(C)(C)C)cc1,> 15 µM (inactive)
11,Cc1cc2ncn(CCOc3ccc4c(c3)CCC4)c2cc1C,4.6 µM
12,Cc1cc2ncn(CCOc3ccccc3C)c2cc1C,2.42 µM
13,CC(C)Oc1ccc(OCCn2cnc3ccccc32)cc1,> 15 µM (inactive)
14,COc1ccccc1OCCn1c(SC)nc2ccccc21,> 15 µM (inactive)
15,Cc1cccc(OCCn2c(=S)[nH]c3c(F)cccc32)c1,3.23 µM and 1.51 µM
16,CSc1nc2ccccc2n1CCOc1ccccc1,> 15 µM (inactive)
17,Clc1ccccc1OCCn1cnc2ccccc21,> 15 µM (inactive)
18,Cc1cccc(OCCn2c(=S)[nH]c3cc(F)ccc32)c1,2.42 µM and 3.03 µM
19,Cc1cccc(OCCn2c(=S)[nH]c3ccc(C(F)(F)F)cc32)c1,> 15 µM (inactive)
20,COc1ccc(OCCn2cnc3ccccc32)cc1,> 15 µM (inactive)

row,Structure (SMILES),AC40
1,CCc1nc2ccccc2n1CCOc1ccccc1,> 15 µM (inactive)
2,CC(C)(C)c1ccc(OCCn2c(CO)nc3ccccc32)cc1,14.2 µM
3,CCCCc1nc2ccccc2n1CCOc1ccccc1,6.27 µM
4,CC(C)Oc1cccc(OCCn2cnc3ccccc32)c1,> 15 µM (inactive)
5,Clc1ccc(OCCn2cnc3ccccc32)cc1,> 15 µM (inactive)
6,OCc1nc2ccccc2n1CCOc1ccccc1,> 15 µM (inactive)
7,CC(C)c1ccccc1OCCn1c(=S)[nH]c2ccccc21,1.25 µM
8,CC(C)(C)c1ccc(OCCn2cnc3ccccc32)cc1,1.46 µM
9,Cc1ccc(C(C)C)c(OCCn2c(=S)[nH]c3ccccc32)c1,9.17 µM
10,CC(C)c1ccccc1NCCn1c(=S)[nH]c2ccccc21,3.78 µM
11,Cc1ccc(C(C)C)c(OCCn2c(CO)nc3ccccc32)c1,> 15 µM (inactive)
12,Cc1cccc(OCCn2cnc3ccccc32)c1,12.8 µM
13,CCCc1nc2ccccc2n1CCOc1ccccc1,7.46 µM
14,S=c1[nH]c2cccc(Cl)c2n1CCOc1ccccc1,2.83 µM
15,Fc1cccc2c1[nH]c(=S)n2CCOc1ccccc1,13.8 µM
16,FC(F)(F)c1cccc(OCCn2cnc3ccccc32)c1,> 15 µM (inactive)
17,Cc1ccc(OCCn2cnc3ccccc32)c(C(C)C)c1,4.09 µM
18,Cc1ccc(OCCn2cnc3cc(C)c(C)cc32)cc1,1.94 µM
19,Cc1cc2ncn(CCOc3ccccc3)c2cc1C,10.1 µM
20,CC(C)(C)c1ccc(OCCn2cnc3ccccc32)c(Cl)c1,> 15 µM (inactive)

# Test system: not listed separately
# Experiment: as above
# Conditions: C. neoformans cell lysis, adenylate kinase release; at 15 µM (top of the series)
row,Structure (SMILES),cell lysis activity
1,COc1cc(C)ccc1OCCn1cnc2ccccc21,-57.7% (inactive)
2,Fc1ccc(OCCn2c(=S)[nH]c3ccccc32)cc1,-65.4% (inactive)
3,c1ccc(-c2ccc(OCCn3cnc4ccccc43)cc2)cc1,6.2% (inactive)
4,COc1ccccc1OCCn1c(=S)[nH]c2ccccc21,-4.68% (inactive)
5,Cc1ccc(C(C)C)c(OCCn2c(=O)[nH]c3ccccc32)c1,-24.5% (inactive)
6,CSc1nc2ccccc2n1CCOc1ccc(C)cc1,16.4% (inactive)
7,O=S(=O)(c1ccc(OCCn2cnc3ccccc32)cc1)N1CCOCC1,-15% (inactive)
8,Cc1ccc2c(c1)[nH]c(=S)n2CCOc1ccccc1,10.9% (inactive)
9,c1ccc2c(c1)ncn2CCOc1ccc2c(c1)CCC2,33.8% (inactive)
10,COc1cccc(OCCn2cnc3ccccc32)c1,-2.74% (inactive)
11,Cc1ccc(C(C)C)c(OCCn2c(NC#N)nc3ccccc32)c1,-24% (inactive)
12,CC(C)Oc1ccc(OCCn2c(=S)[nH]c3ccccc32)cc1,26.4% (inactive)
13,CSc1nc2ccccc2n1CCOc1cc(C)ccc1C(C)C,-20.1% (inactive)
14,Clc1ccc(OCCn2cnc3ccccc32)c(Cl)c1,-34% (inactive)
15,CS(=O)(=O)c1ccc(OCCn2cnc3ccccc32)cc1,-28.4% (inactive)
